This note sets out measurements from ChEMBL document CHEMBL1153865, “The metabolism of CYP2C9 and CYP2C19 for gliclazide by homology modeling and docking study” (Eur J Med Chem, 2009).

The structures appear in SMILES notation.

Common to all, as to format: ADME
For data set [1], the target named is T1, Cytochrome P450 2C19 (Homo sapiens, UniProt P33261). Kind of data set: Inhibition of CYP2C19.
For data set [2], the target named is T1, Cytochrome P450 2C19. Kind of data set: Activity at recombinant CYP2C19 by Michaelis-Menten method. The settings on record: recombinant enzyme.
For data set [3], the target named is T2, Cytochrome P450 2C9 (Homo sapiens, UniProt P11712). Kind of data set: Activity at recombinant CYP2C9 by Michaelis-Menten method. To be noted: recombinant enzyme.
T2 sequence (P11712 whole entry): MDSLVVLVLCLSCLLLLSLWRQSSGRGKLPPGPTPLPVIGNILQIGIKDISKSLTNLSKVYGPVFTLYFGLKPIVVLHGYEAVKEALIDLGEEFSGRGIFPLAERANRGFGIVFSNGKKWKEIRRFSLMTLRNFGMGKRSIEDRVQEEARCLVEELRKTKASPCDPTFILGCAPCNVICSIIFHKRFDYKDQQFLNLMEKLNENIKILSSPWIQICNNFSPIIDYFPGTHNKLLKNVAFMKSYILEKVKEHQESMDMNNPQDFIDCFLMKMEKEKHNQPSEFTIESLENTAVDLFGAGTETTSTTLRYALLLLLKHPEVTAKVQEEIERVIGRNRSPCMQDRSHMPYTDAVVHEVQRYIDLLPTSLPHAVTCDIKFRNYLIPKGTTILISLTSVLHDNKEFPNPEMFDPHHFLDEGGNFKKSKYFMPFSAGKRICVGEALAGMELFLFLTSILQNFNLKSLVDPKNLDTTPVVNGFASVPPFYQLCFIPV
Data set [4] concerns the target T2, Cytochrome P450 2C9. The data set can be described thus: Inhibition of CYP2C9 assessed as decrease in catalytic reaction velocity at 200 uM by substrate-inhibition assay.
Data set [5] has as its target T1, Cytochrome P450 2C19. The data set can be described thus: Inhibition of CYP2C19 assessed as decrease in catalytic reaction velocity at 100 uM by substrate-inhibition assay.

T1 sequence (P33261 whole entry): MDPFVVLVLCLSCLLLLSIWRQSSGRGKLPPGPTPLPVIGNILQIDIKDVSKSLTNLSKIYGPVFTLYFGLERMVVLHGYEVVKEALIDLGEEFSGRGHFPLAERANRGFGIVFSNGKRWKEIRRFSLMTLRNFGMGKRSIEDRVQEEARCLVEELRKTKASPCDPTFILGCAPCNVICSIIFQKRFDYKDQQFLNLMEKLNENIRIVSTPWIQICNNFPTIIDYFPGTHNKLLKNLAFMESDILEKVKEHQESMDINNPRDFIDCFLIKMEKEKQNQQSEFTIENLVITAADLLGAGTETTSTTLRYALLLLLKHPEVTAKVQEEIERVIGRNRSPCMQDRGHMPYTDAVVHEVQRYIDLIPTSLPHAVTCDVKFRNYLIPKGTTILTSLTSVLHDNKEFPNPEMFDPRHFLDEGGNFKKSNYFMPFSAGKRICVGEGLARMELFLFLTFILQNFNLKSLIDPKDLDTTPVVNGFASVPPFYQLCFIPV

For orientation: Ki means a measure of affinity in units of concentration, obtained from inhibition or displacement. In turn, `CCC1(c2ccccc2)C(=O)NC(=O)N(Cc2ccccc2)C1=O` (configuration not stated) displayed an inhibition constant Ki on Cytochrome P450 2C19 [1] of 79 µM.

By Vmax is commonly meant the rate approached at saturating substrate. `Cc1ccc(S(=O)(=O)NC(=O)NN2C[C@@H]3CC[C@@H](O)[C@@H]3C2)cc1`: the Vmax at Cytochrome P450 2C19 [2] was 14.9 pmol/min; at Cytochrome P450 2C9 [3] it was 0.6 pmol/min. Turning to `Cc1ccc(S(=O)(=O)NC(=O)NN2CC3CCCC3C2)cc1` (configuration not stated) [GLICLAZIDE], the “inhibition (INH)” value at Cytochrome P450 2C9 [4] and at Cytochrome P450 2C19 [5] was “Not Active” in each case.

With `O=C(NN1C[C@H]2CCC[C@H]2C1)NS(=O)(=O)c1ccc(CO)cc1` [METHYLHYDROXYLGLICLAZIDE], the maximum rate (Vmax) at Cytochrome P450 2C19 [2] is on record as 12.1 pmol/min; on Cytochrome P450 2C9 [3] it was 0.6 pmol/min.
